Measured values reported in US3992391A, “1,3-Disubstituted thiourea compounds and preparation thereof” (priority 1972, dated 1976).
Counter-ions that a name gives are not always drawn.

Columns and labels:
[1] = Hypoxia test (mouse), normal pressure, survival time; type: in vivo, male mice (dd-strain); settings: 1.5 % O2 + 98.5 % N2
Description: (§1) Male mice (dd-strain) and rats (wister-strain) were taken to a closed room which was filled with a gas mixture consisting of 1.5 % oxygen and 98.5 % nitrogen, or was conditioned in reduced atmospheric pressure (145 mmHg). In the other hand, mice and rats were given sodium cyanide (10 mg/kg, i.p.). These animals died after a few minutes in such conditions. 1-(3'-Pyridyl)-3-(2'-hydroxyethyl)thiourea HCl was given 1 hour before these hypoxia tests.
(§2) In the Tables data mean the increase percent of the survival time to that of control.

[2] = Hypoxia test (rat), reduced pressure, survival time; type: in vivo, rats (wister-strain); settings: reduced pressure 145 mmHg
Description: as §1, §2

[3] = Hypoxia test (rat), KCN, survival time; type: in vivo, rats (wister-strain); settings: KCN 10 mg/kg i.p.
phosphorylase = experiment: Cerebral phosphorylase after cold injury (freezing lesion cerebral edema); type: in vivo; settings: rats
Description: (§3) Cerebral edema was induced in rats by a freezing lesion (dry ice) made on the exposed dura of unilateral hemisphere. Edema was measured by the increase in water content of gray and white matter, the increase in phosphorylase activity and the decrease in Na^+, K^+ - ATPase activity of the injured brain. 1-(3'-Pyridyl)-3-(2'-hydroxyethyl)thiourea HCl was given 1 hour before and 24 hours after, and the animals were killed by decapitation 48 hours after the lesion treatment.

Na^+, K^+ - ATPase [4] = experiment: Cerebral Na^+, K^+ - ATPase after cold injury (freezing lesion cerebral edema); type: in vivo; settings: rats
Description: as §3

Na^+, K^+ - ATPase [5] = experiment: Brain Na^+, K^+ - ATPase after triethyl tin sulfate cerebral edema; type: in vivo; settings: rats
Description: Cerebral edema was induced in rats by a triethyl tin sulfate (5.0 mg/kg, i.p.) made on the whole brain. Edema was measured by the increase in water content, lactate, phosphorylase activity and the decrease in glycogen, Na^+, K^+ - ATPase activity of the whole brain.
1-(3'-Pyridyl)-3-(2'-hydroxyethyl)thiourea HCl was given 1 hour before and 24, 48 hours after the lesion treatment and the animals were killed by decapitation 72 hours after the lesion treatment.

[6] = system: distribution of ^14 C - glucose to brain; experiment: Distribution of ^14 C - glucose(U) to brain; type: in vivo, mouse; settings: for ^14 C-glucose, Brain / ^14 C-glucose, Brain/Plasma / ^14 C-glucose, Plasma: mouse, 300 mg/kg oral
Description: ^14 C - glucose(U) was given intravenously (1.0 μC/mouse), and the animals were killed by decapitation 10 minutes after ^14 C - glucose administration. 1-(3'-Pyridyl)-3-(2'-hydroxyethyl)thiourea HCl was given orally 300 mg/kg before ^14 C - glucose administration.

With OCCNC(=S)Nc1cccnc1 [1-(3'-pyridyl)-3-(2'-hydroxyethyl)thiourea hydrochloride] the “increase percent of the survival time to that of control” value (“increase percent of the survival time” for short) ([1]; 30 mg/kg i.v.) was 164%, the “increase percent of the survival time” value ([1]; 30 mg/kg p.o.) was 105% and the “increase percent of the survival time” value ([1]; 100 mg/kg p.o.) was 165%. The “increase percent of the survival time” value ([1]; 100 mg/kg s.c.) was 147%, the “increase percent of the survival time” value ([1]; 300 mg/kg p.o.) was 231% and the “increase percent of the survival time” value ([2]; 30 mg/kg i.v.) was 135%. The “increase percent of the survival time” value ([2]; 100 mg/kg s.c.) was 132%, the “increase percent of the survival time” value ([3]; 30 mg/kg i.v.) was 174% and the “increase percent of the survival time” value ([3]; 30 mg/kg p.o.) was 45%. For the same molecule, the “increase percent of the survival time” value ([3]; 100 mg/kg p.o.) was 116%, the “increase percent of the survival time” value ([3]; 100 mg/kg s.c.) was 169% and the “increase percent of the survival time” value ([3]; 300 mg/kg p.o.) was 187%. The “Phosphorylase A/T × 100 (Active phosphorylase/Total phosphorylase)” value (phosphorylase; 100 mg/kg p.o.) was 68.5 ± 2.5, the “Phosphorylase, Active” value (phosphorylase; 100 mg/kg p.o.) was 0.242 ± 0.019 units/g and the “Phosphorylase A/T × 100 (Active phosphorylase/Total phosphorylase)” value (phosphorylase; 300 mg/kg p.o.) was 66.4 ± 2.7. The “Phosphorylase, Active” value (phosphorylase; 300 mg/kg p.o.) was 0.220 ± 0.057 units/g, the “effect on the increase in phosphorylase activity” value (phosphorylase; 300 mg/kg p.o.) was “protective effect” and the ATPase (Na^+, K^+ - ATPase [4]; 100 mg/kg p.o.) was 1.180 ± 0.094 μ moles Pi/g/hr. The ATPase (Na^+, K^+ - ATPase [4]; 300 mg/kg p.o.) was 1.226 ± 0.080 μ moles Pi/g/hr, the “effect on the decrease in Na^+, K^+ - ATPase activity” value (Na^+, K^+ - ATPase [4]; 300 mg/kg p.o.) was “protective effect” and the ATPase (Na^+, K^+ - ATPase [5]; 30 mg/kg p.o.) was 1.146 μ moles Pi/g/hr. For the same molecule, the ATPase (Na^+, K^+ - ATPase [5]; 100 mg/kg p.o.) was 1.193 μ moles Pi/g/hr, the ATPase (Na^+, K^+ - ATPase [5]; 300 mg/kg p.o.) was 1.246 μ moles Pi/g/hr and the “effect on the decrease in Na^+, K^+ - ATPase activity of the injured brain” value (Na^+, K^+ - ATPase [5]; 100 and 300 mg/kg orally) was “antagonized”. The “distribution of ^14 C - glucose to brain” value ([6]; 300 mg/kg orally, given 60 - 120 minutes before ^14 C - glucose) was “increased”, the “^14 C-glucose, Brain” value ([6]; 30 min before ^14 C-glucose) was 88.90 ± 12.69 × 10^3 dpm/g and the “^14 C-glucose, Brain/Plasma” value ([6]; 30 min before ^14 C-glucose) was 2.52 ± 0.59. For the same molecule, the “^14 C-glucose, Plasma” value ([6]; 30 min before ^14 C-glucose) was 35.22 ± 2.36 × 10^3 dpm/ml, the “^14 C-glucose, Brain” value ([6]; 60 min before ^14 C-glucose) was 93.76 ± 5.33 × 10^3 dpm/g and the “^14 C-glucose, Brain/Plasma” value ([6]; 60 min before ^14 C-glucose) was 2.48 ± 0.44. For the same molecule, the “^14 C-glucose, Plasma” value ([6]; 60 min before ^14 C-glucose) was 37.88 ± 3.15 × 10^3 dpm/ml, the “^14 C-glucose, Brain” value ([6]; 120 min before ^14 C-glucose) was 96.80 ± 6.80 × 10^3 dpm/g and the “^14 C-glucose, Brain/Plasma” value ([6]; 120 min before ^14 C-glucose) was 2.69 ± 0.15. For the same molecule, the “^14 C-glucose, Plasma” value ([6]; 120 min before ^14 C-glucose) was 35.93 ± 0.95 × 10^3 dpm/ml.
